# Assay results taken from PubChem BioAssay AID1259407 (Chemical Carcinogenesis Research Information System (CCRIS), 2018).
# The source made the active and inactive calls. The rule behind the calls is not given here.
# Test system: CCRIS mutagenicity, Ames/micronucleus/aberration tests
# Experiment: CCRIS mutagenicity studies
# [1] = Test System: AMES SALMONELLA TYPHIMURIUM, Strain/Indicator: TA98, Metabolic Activation: NONE, Method: PREINCUBATION
# [2] = Test System: AMES SALMONELLA TYPHIMURIUM, Strain/Indicator: TA98, Metabolic Activation: RAT LIVER S-9, PHENOBARBITAL AND BETA-NAPHTHOFLAVONE, Method: PREINCUBATION
# [3] = Test System: AMES SALMONELLA TYPHIMURIUM, Strain/Indicator: TA100, Metabolic Activation: NONE, Method: PREINCUBATION
# [4] = Test System: AMES SALMONELLA TYPHIMURIUM, Strain/Indicator: TA100, Metabolic Activation: RAT LIVER S-9, PHENOBARBITAL AND BETA-NAPHTHOFLAVONE, Method: PREINCUBATION
# [5] = Test System: AMES SALMONELLA TYPHIMURIUM, Strain/Indicator: TA1535, Metabolic Activation: NONE, Method: PREINCUBATION
# [6] = Test System: AMES SALMONELLA TYPHIMURIUM, Strain/Indicator: TA1535, Metabolic Activation: RAT LIVER S-9, PHENOBARBITAL AND BETA-NAPHTHOFLAVONE, Method: PREINCUBATION
# [7] = Test System: AMES SALMONELLA TYPHIMURIUM, Strain/Indicator: TA1537, Metabolic Activation: NONE, Method: PREINCUBATION
# [8] = Test System: AMES SALMONELLA TYPHIMURIUM, Strain/Indicator: TA1537, Metabolic Activation: RAT LIVER S-9, PHENOBARBITAL AND BETA-NAPHTHOFLAVONE, Method: PREINCUBATION
# [9] = Test System: AMES SALMONELLA TYPHIMURIUM, Strain/Indicator: TA1538, Metabolic Activation: NONE, Method: PREINCUBATION
# [10] = Test System: AMES SALMONELLA TYPHIMURIUM, Strain/Indicator: TA1538, Metabolic Activation: RAT LIVER S-9, PHENOBARBITAL AND BETA-NAPHTHOFLAVONE, Method: PREINCUBATION
# [11] = Test System: E.COLI, Strain/Indicator: WP2UVRA, Metabolic Activation: NONE, Method: PREINCUBATION
# [12] = Test System: E.COLI, Strain/Indicator: WP2UVRA, Metabolic Activation: RAT LIVER S-9, PHENOBARBITAL AND BETA-NAPHTHOFLAVONE, Method: PREINCUBATION
# [13] = Test System: AMES SALMONELLA TYPHIMURIUM, Strain/Indicator: TA98, Metabolic Activation: NONE, Method: STANDARD PLATE
# [14] = Test System: AMES SALMONELLA TYPHIMURIUM, Strain/Indicator: TA100, Metabolic Activation: NONE, Method: STANDARD PLATE
structure (smiles),measurement,setting,value
N=C(N)N,mutagenic call,[1],inactive; negative
same,mutagenic call,[2],inactive; negative
same,mutagenic call,[3],inactive; negative
same,mutagenic call,[4],inactive; negative
same,mutagenic call,[5],inactive; negative
same,mutagenic call,[6],inactive; negative
same,mutagenic call,[7],inactive; negative
same,mutagenic call,[8],inactive; negative
same,mutagenic call,[9],inactive; negative
same,mutagenic call,[10],inactive; negative
same,mutagenic call,[11],inactive; negative
same,mutagenic call,[12],inactive; negative
C1CN(SSN2CCOCC2)CCO1,mutagenic call,[1],inactive; negative
same,mutagenic call,[2],inactive; negative
same,mutagenic call,[3],inactive; negative
same,mutagenic call,[4],inactive; negative
same,mutagenic call,[5],inactive; negative
same,mutagenic call,[6],inactive; negative
same,mutagenic call,[7],inactive; negative
same,mutagenic call,[8],inactive; negative
same,mutagenic call,[9],inactive; negative
same,mutagenic call,[10],inactive; negative
same,mutagenic call,[11],inactive; negative
same,mutagenic call,[12],inactive; negative
O=c1ccn([C@H]2C[C@H](O)[C@@H](CO)O2)c(=O)[nH]1,mutagenic call,"Test System: AMES SALMONELLA TYPHIMURIUM, Strain/Indicator: TA97, Metabolic Activation: NONE, Method: PREINCUBATION",inactive; negative
same,mutagenic call,"Test System: AMES SALMONELLA TYPHIMURIUM, Strain/Indicator: TA97, Metabolic Activation: RAT, LIVER, S-9, AROCLOR 1254, Method: PREINCUBATION",inactive; negative
same,mutagenic call,[3],inactive; negative
same,mutagenic call,"Test System: AMES SALMONELLA TYPHIMURIUM, Strain/Indicator: TA100, Metabolic Activation: RAT, LIVER, S-9, AROCLOR 1254, Method: PREINCUBATION",inactive; negative
same,mutagenic call,"Test System: CHINESE HAMSTER V-79, Strain/Indicator: V-79/8-AZAGUANINE, Metabolic Activation: NONE",inactive; negative
Nc1ncc2[nH]cnc2n1,mutagenic call,[13],inactive; negative
same,mutagenic call,[14],inactive; negative
same,mutagenic call,"Test System: CHINESE HAMSTER V-79, Strain/Indicator: V-79 (HGPRT)/6-THIOGUANINE, Metabolic Activation: NONE, Method: STANDARD PLATE",active; positive
same,mutagenic call,"Test System: E. COLI, Strain/Indicator: WP2, Metabolic Activation: NONE, Method: STANDARD PLATE",active; positive
same,mutagenic call,"Test System: E. COLI, Strain/Indicator: WP2 UVRA, Metabolic Activation: NONE, Method: STANDARD PLATE",active; positive
same,mutagenic call,"Test System: MOUSE LYMPHOMA, Strain/Indicator: L5178Y (TK+/TK-), Metabolic Activation: NONE, Method: SUSPENSION/PLATE",active; positive
CC1CCCO1 (stereo not drawn),mutagenic call,"Test System: AMES SALMONELLA TYPHIMURIUM, Strain/Indicator: TA98, Metabolic Activation: HAMSTER LIVER S-9, AROCLOR 1254, Method: STANDARD PLATE",inactive; negative
same,mutagenic call,[13],inactive; negative
same,mutagenic call,"Test System: AMES SALMONELLA TYPHIMURIUM, Strain/Indicator: TA98, Metabolic Activation: RAT LIVER S-9, AROCLOR 1254, Method: STANDARD PLATE",inactive; negative
same,mutagenic call,"Test System: AMES SALMONELLA TYPHIMURIUM, Strain/Indicator: TA100, Metabolic Activation: HAMSTER LIVER S-9, AROCLOR 1254, Method: STANDARD PLATE",inactive; negative
same,mutagenic call,[14],inactive; negative
same,mutagenic call,"Test System: AMES SALMONELLA TYPHIMURIUM, Strain/Indicator: TA100, Metabolic Activation: RAT LIVER S-9, AROCLOR 1254, Method: STANDARD PLATE",inactive; negative
same,mutagenic call,"Test System: AMES SALMONELLA TYPHIMURIUM, Strain/Indicator: TA102, Metabolic Activation: HAMSTER LIVER S-9, AROCLOR 1254, Method: STANDARD PLATE",inactive; negative
same,mutagenic call,"Test System: AMES SALMONELLA TYPHIMURIUM, Strain/Indicator: TA102, Metabolic Activation: NONE, Method: STANDARD PLATE",inactive; negative
same,mutagenic call,"Test System: AMES SALMONELLA TYPHIMURIUM, Strain/Indicator: TA102, Metabolic Activation: RAT LIVER S-9, AROCLOR 1254, Method: STANDARD PLATE",inactive; negative
same,mutagenic call,"Test System: AMES SALMONELLA TYPHIMURIUM, Strain/Indicator: TA1535, Metabolic Activation: HAMSTER LIVER S-9, AROCLOR 1254, Method: STANDARD PLATE",inactive; negative
same,mutagenic call,"Test System: AMES SALMONELLA TYPHIMURIUM, Strain/Indicator: TA1535, Metabolic Activation: NONE, Method: STANDARD PLATE",inactive; negative
same,mutagenic call,"Test System: AMES SALMONELLA TYPHIMURIUM, Strain/Indicator: TA1535, Metabolic Activation: RAT LIVER S-9, AROCLOR 1254, Method: STANDARD PLATE",inactive; negative
same,mutagenic call,"Test System: AMES SALMONELLA TYPHIMURIUM, Strain/Indicator: TA1537, Metabolic Activation: HAMSTER LIVER S-9, AROCLOR 1254, Method: STANDARD PLATE",inactive; negative
same,mutagenic call,"Test System: AMES SALMONELLA TYPHIMURIUM, Strain/Indicator: TA1537, Metabolic Activation: NONE, Method: STANDARD PLATE",inactive; negative
same,mutagenic call,"Test System: AMES SALMONELLA TYPHIMURIUM, Strain/Indicator: TA1537, Metabolic Activation: RAT LIVER S-9, AROCLOR 1254, Method: STANDARD PLATE",inactive; negative
same,mutagenic call,"Test System: Mouse lymphoma, Strain/Indicator: L5178Y (tk+/tk-), Metabolic Activation: None, Method: Suspension/plate",inactive; negative
same,mutagenic call,"Test System: Mouse lymphoma, Strain/Indicator: L5178Y (tk+/tk-), Metabolic Activation: Rat, Liver, S-9, Aroclor 1254, Method: Suspension/plate",inactive; inconclusive (previous evaluation negative)
O=C1CCCc2ccc3c([N+](=O)[O-])c4ccccc4cc3c21,mutagenic call,"Test System: AMES SALMONELLA TYPHIMURIUM, Strain/Indicator: TA98, Metabolic Activation: NONE",inactive; negative
same,mutagenic call,"Test System: AMES SALMONELLA TYPHIMURIUM, Strain/Indicator: TA98, Metabolic Activation: S-9",inactive; negative
same,mutagenic call,"Test System: AMES SALMONELLA TYPHIMURIUM, Strain/Indicator: TA100, Metabolic Activation: NONE",inactive; negative
same,mutagenic call,"Test System: AMES SALMONELLA TYPHIMURIUM, Strain/Indicator: TA100, Metabolic Activation: S-9",inactive; negative
F[B-](F)(F)F,mutagenic call,[1],inactive; negative
same,mutagenic call,"Test System: AMES SALMONELLA TYPHIMURIUM, Strain/Indicator: TA98, Metabolic Activation: RAT, LIVER, S-9, KC 500, Method: PREINCUBATION",inactive; negative
same,mutagenic call,[3],inactive; negative
same,mutagenic call,"Test System: AMES SALMONELLA TYPHIMURIUM, Strain/Indicator: TA100, Metabolic Activation: RAT, LIVER, S-9, KC 500, Method: PREINCUBATION",inactive; negative
same,mutagenic call,[5],inactive; negative
same,mutagenic call,"Test System: AMES SALMONELLA TYPHIMURIUM, Strain/Indicator: TA1535, Metabolic Activation: RAT, LIVER, S-9, KC 500, Method: PREINCUBATION",inactive; negative
same,mutagenic call,[7],inactive; negative
same,mutagenic call,"Test System: AMES SALMONELLA TYPHIMURIUM, Strain/Indicator: TA1537, Metabolic Activation: RAT, LIVER, S-9, KC 500, Method: PREINCUBATION",inactive; negative
same,mutagenic call,[9],inactive; negative
same,mutagenic call,"Test System: AMES SALMONELLA TYPHIMURIUM, Strain/Indicator: TA1538, Metabolic Activation: RAT, LIVER, S-9, KC 500, Method: PREINCUBATION",inactive; negative
same,mutagenic call,"Test System: E. COLI, Strain/Indicator: WP2 UVRA, Metabolic Activation: NONE, Method: PREINCUBATION",inactive; negative
same,mutagenic call,"Test System: E. COLI, Strain/Indicator: WP2 UVRA, Metabolic Activation: RAT, LIVER, S-9, KC 500, Method: PREINCUBATION",inactive; negative
